Source: PubChem BioAssay AID1963960 (Molecular Pharmacology Branch, DTP, NCI, 2024)

Test system: MDA-MB-468 spheroids with HUVEC/MSC, viability
Assay: Anticancer human tumor MDA-MB-468 cell line growth inhibition [PI3K];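 further: spheroids exposed to agents for seven days before readout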;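 on viability, T/C: 100% = DMSO vehicle control viability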
Conditions: for viability, T/C: stronger effect = lower value; active means viability on the fitted dose curve at most 10% of control; inactive means the rest
How it was run: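 Spheroid viability read-out. Co-cultures contained the tumor line plus HUVEC and human MSCs. Each agent was paired with a PI3K inhibitor (inavolisib, alpelisib, duvelisib, copanlisib) across half-log dilutions starting at clinical Cmax, or at 10 microM when Cmax was unknown.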

[1] = curve of first compound, second compound 0.00316 µM
[2] = curve of first compound, second compound 0.01 µM
[3] = curve of first compound, second compound 0.0316 µM
[4] = curve of first compound, second compound 0.1 µM
[5] = curve of first compound, second compound 0.316 µM
[6] = curve of first compound, second compound 1 µM
[7] = second compound 0.00316 µM, first compound 0.0316 µM
[8] = second compound 0.00316 µM, first compound 0.1 µM
[9] = second compound 0.00316 µM, first compound 0.316 µM
[10] = second compound 0.00316 µM, first compound 1 µM
[11] = second compound 0.00316 µM, first compound 3.16 µM
[12] = second compound 0.00316 µM, first compound 10 µM
[13] = second compound 0.01 µM, first compound 0.0316 µM
[14] = second compound 0.01 µM, first compound 0.1 µM
[15] = second compound 0.01 µM, first compound 0.316 µM
[16] = second compound 0.01 µM, first compound 1 µM
[17] = second compound 0.01 µM, first compound 3.16 µM
[18] = second compound 0.01 µM, first compound 10 µM
[19] = second compound 0.0316 µM, first compound 0.0316 µM
[20] = second compound 0.0316 µM, first compound 0.1 µM
[21] = second compound 0.0316 µM, first compound 0.316 µM
[22] = second compound 0.0316 µM, first compound 1 µM
[23] = second compound 0.0316 µM, first compound 3.16 µM
[24] = second compound 0.0316 µM, first compound 10 µM
[25] = second compound 0.1 µM, first compound 0.0316 µM
[26] = second compound 0.1 µM, first compound 0.1 µM
[27] = second compound 0.1 µM, first compound 0.316 µM
[28] = second compound 0.1 µM, first compound 1 µM
[29] = second compound 0.1 µM, first compound 3.16 µM
[30] = second compound 0.1 µM, first compound 10 µM
[31] = second compound 0.316 µM, first compound 0.0316 µM
[32] = second compound 0.316 µM, first compound 0.1 µM
[33] = second compound 0.316 µM, first compound 0.316 µM
[34] = second compound 0.316 µM, first compound 1 µM
[35] = second compound 0.316 µM, first compound 3.16 µM
[36] = second compound 0.316 µM, first compound 10 µM
[37] = second compound 1 µM, first compound 0.0316 µM
[38] = second compound 1 µM, first compound 0.1 µM
[39] = second compound 1 µM, first compound 0.316 µM
[40] = second compound 1 µM, first compound 1 µM
[41] = second compound 1 µM, first compound 3.16 µM
[42] = second compound 1 µM, first compound 10 µM

CC(Cn1ccc(-c2ccc(C#N)c(Cl)c2)n1)NC(=O)c1cc(C(C)O)[nH]n1 (configuration not stated) + COc1c(OCCCN2CCOCC2)ccc2c3n(c(=NC(=O)c4cnc(N)nc4)nc12)CCN3
> 10000 nM: IC50 [1] | IC50 [2] | IC50 [3] | IC50 [4]
< 31.6 nM: IC50 [5] | IC50 [6]
inactive: viability, T/C [7] 88.8% | viability, T/C [8] 90.3% | viability, T/C [9] 94.3% | viability, T/C [10] 92.3% | viability, T/C [11] 90.5% | viability, T/C [12] 75.3% | viability, T/C [13] 92.2% | viability, T/C [14] 91.3% | viability, T/C [15] 83.4% | viability, T/C [16] 95.3% | viability, T/C [17] 85.3% | viability, T/C [18] 63.7% | viability, T/C [19] 83.6% | viability, T/C [20] 75.7% | viability, T/C [21] 87.1% | viability, T/C [22] 80.5% | viability, T/C [23] 80.9% | viability, T/C [24] 62.8% | viability, T/C [25] 55.8% | viability, T/C [26] 57% | viability, T/C [27] 60.9% | viability, T/C [28] 59.3% | viability, T/C [29] 56% | viability, T/C [30] 62.3% | viability, T/C [31] 26.9% | viability, T/C [32] 24.4% | viability, T/C [33] 27.3% | viability, T/C [34] 26.1% | viability, T/C [35] 26.7% | viability, T/C [36] 27.2%
active: viability, T/C [37] 2.86% | viability, T/C [38] 2.48% | viability, T/C [39] 2.64% | viability, T/C [40] 3.21% | viability, T/C [41] 3.72% | viability, T/C [42] 2.3%

CNC(=O)c1ccc(N2C(=S)N(c3ccc(C#N)c(C(F)(F)F)c3)C(=O)C2(C)C)cc1F
inactive: viability, T/C (compound 0.0316 µM) 98% [middle of 4 runs] | viability, T/C (compound 0.1 µM) 97% [middle of 4 runs] | viability, T/C (compound 0.316 µM) 97% [middle of 4 runs] | viability, T/C (compound 1 µM) 102% [middle of 4 runs] | viability, T/C (compound 3.16 µM) 93.3% [middle of 4 runs] | viability, T/C (compound 10 µM) 72.8% [middle of 4 runs]
> 10000 nM: IC50 (curve of compound)

Cn1cnc2c(F)c(Nc3ccc(Br)cc3Cl)c(C(=O)NOCCO)cc21 + COc1c(OCCCN2CCOCC2)ccc2c3n(c(=NC(=O)c4cnc(N)nc4)nc12)CCN3
active: viability, T/C (second compound 0.316 µM, first compound 3 µM) 4.57% | viability, T/C (second compound 1 µM, first compound 0.00949 µM) 2.75% | viability, T/C (second compound 1 µM, first compound 0.03 µM) 2.53% | viability, T/C (second compound 1 µM, first compound 0.0949 µM) 1.74% | viability, T/C (second compound 1 µM, first compound 0.3 µM) 1.38% | viability, T/C (second compound 1 µM, first compound 0.949 µM) 1.4% | viability, T/C (second compound 1 µM, first compound 3 µM) 0.51%
< 9.49 nM: IC50 [5] | IC50 [6]
inactive: viability, T/C (second compound 0.00316 µM, first compound 0.00949 µM) 80.8% | viability, T/C (second compound 0.00316 µM, first compound 0.03 µM) 88.8% | viability, T/C (second compound 0.00316 µM, first compound 0.0949 µM) 84.4% | viability, T/C (second compound 0.00316 µM, first compound 0.3 µM) 78.3% | viability, T/C (second compound 0.00316 µM, first compound 0.949 µM) 62.5% | viability, T/C (second compound 0.00316 µM, first compound 3 µM) 55.8% | viability, T/C (second compound 0.01 µM, first compound 0.00949 µM) 74.8% | viability, T/C (second compound 0.01 µM, first compound 0.03 µM) 76.6% | viability, T/C (second compound 0.01 µM, first compound 0.0949 µM) 81.1% | viability, T/C (second compound 0.01 µM, first compound 0.3 µM) 64.9% | viability, T/C (second compound 0.01 µM, first compound 0.949 µM) 60.6% | viability, T/C (second compound 0.01 µM, first compound 3 µM) 49.3% | viability, T/C (second compound 0.0316 µM, first compound 0.00949 µM) 68% | viability, T/C (second compound 0.0316 µM, first compound 0.03 µM) 69.7% | viability, T/C (second compound 0.0316 µM, first compound 0.0949 µM) 64.2% | viability, T/C (second compound 0.0316 µM, first compound 0.3 µM) 57.3% | viability, T/C (second compound 0.0316 µM, first compound 0.949 µM) 53.8% | viability, T/C (second compound 0.0316 µM, first compound 3 µM) 37.3% | viability, T/C (second compound 0.1 µM, first compound 0.00949 µM) 55.2% | viability, T/C (second compound 0.1 µM, first compound 0.03 µM) 47.9% | viability, T/C (second compound 0.1 µM, first compound 0.0949 µM) 51.2% | viability, T/C (second compound 0.1 µM, first compound 0.3 µM) 46.4% | viability, T/C (second compound 0.1 µM, first compound 0.949 µM) 32.1% | viability, T/C (second compound 0.1 µM, first compound 3 µM) 15.6% | viability, T/C (second compound 0.316 µM, first compound 0.00949 µM) 26.5% | viability, T/C (second compound 0.316 µM, first compound 0.03 µM) 23.4% | viability, T/C (second compound 0.316 µM, first compound 0.0949 µM) 18.5% | viability, T/C (second compound 0.316 µM, first compound 0.3 µM) 16.4% | viability, T/C (second compound 0.316 µM, first compound 0.949 µM) 11.8%
> 3000 nM: IC50 [1] | IC50 [2]
114 nM: IC50 [4]
1080 nM: IC50 [3]

CC(C)NCC(C(=O)N1CCN(c2ncnc3c2C(C)CC3O)CC1)c1ccc(Cl)cc1 (configuration not stated) + COc1c(OCCCN2CCOCC2)ccc2c3n(c(=NC(=O)c4cnc(N)nc4)nc12)CCN3
inactive: viability, T/C [7] 89.4% | viability, T/C [8] 79.2% | viability, T/C [9] 70.6% | viability, T/C [10] 47.7% | viability, T/C [11] 31.4% | viability, T/C [12] 24.2% | viability, T/C [13] 83.2% | viability, T/C [14] 81.3% | viability, T/C [15] 65.4% | viability, T/C [16] 44.5% | viability, T/C [17] 31.7% | viability, T/C [18] 23.6% | viability, T/C [19] 76.3% | viability, T/C [20] 68.5% | viability, T/C [21] 66.4% | viability, T/C [22] 42.3% | viability, T/C [23] 28.9% | viability, T/C [24] 20.2% | viability, T/C [25] 57.4% | viability, T/C [26] 55.2% | viability, T/C [27] 49.1% | viability, T/C [28] 34.7% | viability, T/C [29] 27.1% | viability, T/C [30] 14.7% | viability, T/C [31] 27.1% | viability, T/C [32] 27% | viability, T/C [33] 24.5% | viability, T/C [34] 21.2% | viability, T/C [35] 15.1% | viability, T/C [36] 9.47%
219 nM: IC50 [4]
910 nM: IC50 [1]
711 nM: IC50 [3]
active: viability, T/C [37] 4.25% | viability, T/C [38] 3.87% | viability, T/C [39] 2.81% | viability, T/C [40] 3.58% | viability, T/C [41] 3.71% | viability, T/C [42] 2.69%
762 nM: IC50 [2]
< 31.6 nM: IC50 [5] | IC50 [6]

CC1(C)CCC(Nc2ncc(C(F)(F)F)c(-c3c[nH]c4c(P(C)(C)=O)c(C#N)ccc34)n2)CN1 (configuration not stated)
9.01% [middle of 4 runs]: viability, T/C (compound 0.316 µM)
10.6% [middle of 4 runs]: viability, T/C (compound 0.1 µM)
active: viability, T/C (compound 1 µM) 7.86% [middle of 4 runs] | viability, T/C (compound 3.16 µM) 8.98% [middle of 4 runs] | viability, T/C (compound 10 µM) 1.71% [middle of 4 runs]
inactive: viability, T/C (compound 0.0316 µM) 12% [middle of 4 runs]
< 31.6 nM: IC50 (curve of compound)

C#Cc1c(F)ccc2cc(O)cc(-c3ncc4c(N5CC6CCC(C5)N6)nc(OCC56CCCN5CC(F)C6)nc4c3F)c12 (configuration not stated) + COc1c(OCCCN2CCOCC2)ccc2c3n(c(=NC(=O)c4cnc(N)nc4)nc12)CCN3
7830 nM: IC50 [3]
active: viability, T/C [37] 2.58% | viability, T/C [38] 2.36% | viability, T/C [39] 2.21% | viability, T/C [40] 2.61% | viability, T/C [41] 1.99% | viability, T/C [42] 0.74%
inactive: viability, T/C [7] 89.4% | viability, T/C [8] 82.8% | viability, T/C [9] 96.7% | viability, T/C [10] 96.8% | viability, T/C [11] 84.5% | viability, T/C [12] 56.9% | viability, T/C [13] 72.7% | viability, T/C [14] 91.3% | viability, T/C [15] 87% | viability, T/C [16] 87% | viability, T/C [17] 77.7% | viability, T/C [18] 61% | viability, T/C [19] 76.5% | viability, T/C [20] 68.8% | viability, T/C [21] 74.2% | viability, T/C [22] 83.9% | viability, T/C [23] 72.4% | viability, T/C [24] 43.7% | viability, T/C [25] 53.9% | viability, T/C [26] 52% | viability, T/C [27] 61.3% | viability, T/C [28] 61.8% | viability, T/C [29] 52.8% | viability, T/C [30] 24.6% | viability, T/C [31] 25.1% | viability, T/C [32] 23% | viability, T/C [33] 25.9% | viability, T/C [34] 27.2% | viability, T/C [35] 20.1% | viability, T/C [36] 6.75%
> 10000 nM: IC50 [1] | IC50 [2]
< 31.6 nM: IC50 [5] | IC50 [6]
3670 nM: IC50 [4]
